This passage reports IC50 results from US20080021026A1, “BENZOTHIOPHENE INHIBITORS OF RHO KINASE” (priority 2006, published 2008).

Like-named read-outs stand apart in the source and are kept apart here. Some results are limits rather than exact numbers.

The target of test [1] is T1, recombinant N-terminal GST-tagged human Rho kinase 1 (ROCK1, amino acids 1-535) (Homo sapiens, UniProt Q13464).
T1 construct: ROCK1, amino acids 1-535; purchased Invitrogen Inc. PV-3691
Put plainly: In vitro Rho kinase assay (luciferase-based ATP consumption), ROCK1. In kind it is biochemical. In short, it runs like this:
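GST-ROCK1 (aa 1-535) at 0.82 μg/ml with 100 μg/ml S6 peptide and 3 µM ATP in Tris pH 7.5 buffer with MgCl2, CaCl2, EGTA, BSA; compound added after reaction start, 2 h at 30 °C. Remaining ATP read by luciferase luminescence; efficacy as percent of H-1152P positive control.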

The target of test [2] is T2, recombinant N-terminal GST-tagged human Rho kinase 2 (ROCK2, amino acids 1-552) (Homo sapiens, UniProt O75116).
T2 construct: ROCK2, amino acids 1-552; purchased Invitrogen Inc. PV3759
T2 sequence (O75116 1-552): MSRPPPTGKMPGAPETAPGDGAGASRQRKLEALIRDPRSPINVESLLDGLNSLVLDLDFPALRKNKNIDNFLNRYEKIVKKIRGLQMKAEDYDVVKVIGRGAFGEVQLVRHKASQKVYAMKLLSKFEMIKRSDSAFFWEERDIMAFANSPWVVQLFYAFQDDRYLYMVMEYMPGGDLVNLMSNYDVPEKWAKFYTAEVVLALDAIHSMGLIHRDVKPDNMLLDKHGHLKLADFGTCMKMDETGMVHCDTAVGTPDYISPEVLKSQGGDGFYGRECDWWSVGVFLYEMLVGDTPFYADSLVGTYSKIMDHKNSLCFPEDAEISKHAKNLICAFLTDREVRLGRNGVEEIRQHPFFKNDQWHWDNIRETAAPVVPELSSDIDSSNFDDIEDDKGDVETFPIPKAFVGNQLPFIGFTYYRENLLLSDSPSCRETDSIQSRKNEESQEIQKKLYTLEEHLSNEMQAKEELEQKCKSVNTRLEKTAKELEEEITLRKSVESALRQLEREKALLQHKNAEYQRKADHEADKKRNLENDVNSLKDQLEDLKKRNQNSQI
The test can be described thus: In vitro Rho kinase assay (luciferase-based ATP consumption), ROCK2. In kind it is biochemical. The method in brief: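 GST-ROCK2 (aa 1-552, 0.82 μg/ml) with 100 μg/ml S6 peptide and 3 µM ATP in Tris pH 7.5 buffer with MgCl2/CaCl2/EGTA/BSA, compound added just after reaction start, 2 h at 30 °C. Remaining ATP read by luciferase luminescence. Efficacy expressed as percentage of H-1152P positive control.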

Setting [3] is: recombinant GST-tagged human ROCK1, luciferase-based ATP consumption, read-out: ROCK1 IC50.
[4] abbreviates: recombinant GST-tagged human ROCK2, luciferase-based ATP consumption, read-out: ROCK2 IC50.

One may read the IC50 as the concentration that gives 50% inhibition.

T1 sequence (Q13464 1-535): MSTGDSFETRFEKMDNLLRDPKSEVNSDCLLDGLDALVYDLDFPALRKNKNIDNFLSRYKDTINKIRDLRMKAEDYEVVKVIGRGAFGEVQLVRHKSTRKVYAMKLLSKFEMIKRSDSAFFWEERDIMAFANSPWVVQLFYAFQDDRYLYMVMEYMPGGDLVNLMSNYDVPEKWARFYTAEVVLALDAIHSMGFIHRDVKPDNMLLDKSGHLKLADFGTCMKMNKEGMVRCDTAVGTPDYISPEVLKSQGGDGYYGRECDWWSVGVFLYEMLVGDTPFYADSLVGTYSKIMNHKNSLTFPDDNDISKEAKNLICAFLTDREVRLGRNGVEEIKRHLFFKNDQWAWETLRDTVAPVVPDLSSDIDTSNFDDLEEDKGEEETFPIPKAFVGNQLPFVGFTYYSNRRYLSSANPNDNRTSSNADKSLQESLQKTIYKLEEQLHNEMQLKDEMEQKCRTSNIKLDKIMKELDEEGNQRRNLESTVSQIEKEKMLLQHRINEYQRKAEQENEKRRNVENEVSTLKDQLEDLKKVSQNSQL

On to `Cc1cc(C(=O)NCc2ccc3sc(-c4ccnc(N)n4)c(C)c3c2)n[nH]1` [Example 113, Cc1cc(n[nH]1)C(═O)NCc2ccc3sc(c(C)c3c2)-c4ccnc(N)n4], for which the results for the IC50 in test [1] (setting [3]) and in test [2] (setting [4]) were over 5 µM and under 5 µM, respectively.
On to `Cc1c(-c2ccnc(N)n2)sc2ccc(CNC(=O)C3CN(C(=O)OC(C)(C)C)CCN3)cc12` (centres unmarked) [Example 308, Cc1c(sc2ccc(CNC(═O)[C]3CN(CCN3)C(═O)OC(C)(C)C)cc12)-c4ccnc(N)n4], for which the IC50 in test [1] (setting [3]) and in test [2] (setting [4]) was over 5 µM each time.
For `Cc1c(-c2ccnc(N)n2)sc2ccc(CNC(=O)C=Cc3ccccc3Cl)cc12` [Example 225, Cc1c(sc2ccc(CNC(═O)C═Cc3ccccc3Cl)cc12)-c4ccnc(N)n4], the IC50 is over 5 µM in test [1] (ROCK1 IC50, recombinant GST-tagged human ROCK1, luciferase-based ATP consumption) and under 5 µM in test [2] (ROCK2 IC50, recombinant GST-tagged human ROCK2, luciferase-based ATP consumption).
Take `Cc1cc(C)cc(C(=O)NCc2ccc3sc(-c4ccnc(N)n4)c(C)c3c2)c1` [Example 135, Cc1cc(C)cc(c1)C(═O)NCc2ccc3sc(c(C)c3c2)-c4ccnc(N)n4]: the IC50 in test [1] (setting [3]) and in test [2] (setting [4]) was over 5 µM each time.
For the molecule `Cc1c(-c2ccnc(N)n2)sc2ccc(CNC(=O)c3cc([N+](=O)[O-])ccc3F)cc12` [Example 229, Cc1c(sc2ccc(CNC(═O)c3cc(ccc3F)[N+]([O−])═O)cc12)-c4ccnc(N)n4], the IC50 in test [1] (setting [3]) and in test [2] (setting [4]) was under 5 µM throughout.
As to `Cc1c(-c2ccnc(N)n2)sc2ccc(Oc3cccc([N+](=O)[O-])c3)cc12` [Example 80, 4-(3-Methyl-5-(3-nitrophenoxy)benzo[b]thiophen-2-yl)pyrimidin-2-amine], the IC50 in test [1] (setting [3]) and in test [2] (setting [4]) was under 5 µM throughout.
In the case of `Cc1c(-c2ccnc(N)n2)sc2ccc(CNC(=O)C3=CCCC3)cc12` [Example 104, Cc1c(sc2ccc(CNC(═O)C3═CCCC3)cc12)-c4ccnc(N)n4], the IC50 in test [1] (setting [3]) and in test [2] (setting [4]) was under 5 µM throughout.
Turning to `Cc1c(-c2ccnc(N)n2)sc2ccc(CNC(=O)c3ccnc(Cl)c3)cc12` [Example 150, Cc1c(sc2ccc(CNC(═O)c3ccnc(Cl)c3)cc12)-c4ccnc(N)n4], the IC50 in test [1] (setting [3]) and in test [2] (setting [4]) was under 5 µM each time.
With `Cc1c(-c2ccnc(N)n2)sc2ccc(CNC(=O)CNC(=O)OC(C)(C)C)cc12` [Example 196, Cc1c(sc2ccc(CNC(═O)CNC(═O)OC(C)(C)C)cc12)-c3ccnc(N)n3], the IC50 in test [1] (setting [3]) and in test [2] (setting [4]) was under 5 µM each time.
Turning to `Cc1c(-c2ccnc(N)n2)sc2ccc(CNC(=O)c3c(F)cccc3F)cc12` [Example 153, Cc1c(sc2ccc(CNC(═O)c3c(F)cccc3F)cc12)-c4ccnc(N)n4], the IC50 in test [1] (setting [3]) and in test [2] (setting [4]) was under 5 µM in each case.
`Cc1c(-c2ccnc(N)n2)sc2ccc(CNC(=O)C=Cc3ccccc3O)cc12` [Example 161, Cc1c(sc2ccc(CNC(═O)C═Cc3ccccc3O)cc12)-c4ccnc(N)n4]: the IC50 in test [1] (setting [3]) and in test [2] (setting [4]) was under 5 µM throughout.
As for `Cc1c(-c2ccnc(N)n2)sc2ccc(CNC(=O)c3ccc(Cl)cc3O)cc12` [Example 190, Cc1c(sc2ccc(CNC(═O)c3ccc(Cl)cc3O)cc12)-c4ccnc(N)n4], the IC50 in test [1] (setting [3]) and in test [2] (setting [4]) was under 5 µM in each case.
In the case of `COc1cccc(Sc2ccc3sc(-c4ccnc(N)n4)c(C)c3c2)c1` [Example 83, 4-(5-(3-Methoxyphenylthio)-3-methylbenzo[b]thiophen-2-yl)pyrimidin-2-amine], the IC50 in test [1] (setting [3]) and in test [2] (setting [4]) was under 5 µM throughout.
On to `CC(=O)c1cccc(C(=O)NCc2ccc3sc(-c4ccnc(N)n4)c(C)c3c2)c1` [Example 164, CC(═O)c1cccc(c1)C(═O)NCc2ccc3sc(c(C)c3c2)-c4ccnc(N)n4], for which the IC50 is over 5 µM in test [1] (setting [3]) and under 5 µM in test [2] (setting [4]).
The matching figures for `Cc1c(-c2ccnc(N)n2)sc2ccc(Cc3cccc(C(F)(F)F)c3)cc12` [Example 39, 4-(3-Methyl-5-(3-(trifluoromethyl)benzyl)benzo[b]thiophen-2-yl)pyrimidin-2-amine]: over 5 µM and over 5 µM.
The matching figures for `COc1cc(OC)c(C(=O)NCc2ccc3sc(-c4ccnc(N)n4)c(C)c3c2)cc1OC` [Example 278, COc1cc(OC)c(cc1OC)C(═O)NCc2ccc3sc(c(C)c3c2)-c4ccnc(N)n4]: under 5 µM and under 5 µM.
The matching figures for `Cc1c(-c2ccnc(N)n2)sc2ccc(Cc3cccc(OCCN4CCOCC4)c3)cc12` [Example 29, 4-(3-Methyl-5-(3-(2-morpholinoethoxy)benzyl)benzo[b]thiophen-2-yl)pyrimidin-2-amine]: under 5 µM and under 5 µM.
Regarding `CC(=O)c1ccc(C(=O)NCc2ccc3sc(-c4ccnc(N)n4)c(C)c3c2)cc1` [Example 162, CC(═O)c1ccc(Cc1)C(═O)NCc2ccc3sc(c(C)c3c2)-c4ccnc(N)n4], the IC50 was over 5 µM in test [1] (setting [3]) and under 5 µM in test [2] (setting [4]).
The matching figures for `Cc1c(-c2ccnc(N)n2)sc2ccc(CNC(=O)c3cccc(F)c3F)cc12` [Example 154, Cc1c(sc2ccc(CNC(═O)c3cccc(F)c3F)cc12)-c4ccnc(N)n4]: over 5 µM and under 5 µM.
The matching figures for `COc1cccc(CCc2ccc3sc(-c4ccnc(N)n4)c(C)c3c2)c1` [Example 90, 4-(5-(3-Methoxyphenethyl)-3-methylbenzo[b]thiophen-2-yl)pyrimidin-2-amine]: over 5 µM and over 5 µM.
The matching figures for `CCCCCCCC(=O)NCc1ccc2sc(-c3ccnc(N)n3)c(C)c2c1` [Example 125]: over 5 µM and under 5 µM.
`Cc1c(-c2ccnc(N)n2)sc2ccc(CNC(=O)C3Cc4ccccc4CN3C(=O)OC(C)(C)C)cc12` (centres unmarked) [Example 327, Cc1c(sc2ccc(CNC(═O)[C]3Cc4ccccc4CN3C(═O)OC(C)(C)C)cc12)-c5ccnc(N)n5]: the figures for the IC50 in test [1] (setting [3]) and in test [2] (setting [4]) were under 5 µM and over 5 µM, respectively.
The matching figures for `Cc1c(-c2ccnc(N)n2)sc2ccc(CNC(=O)c3ccc(OC(C)C)cc3)cc12` [Example 214, CC(C)Oc1ccc(cc1)C(═O)NCc2ccc3sc(c(C)c3c2)-c4ccnc(N)n4]: over 5 µM and over 5 µM.
The matching figures for `Cc1c(-c2ccnc(N)n2)sc2ccc(CNC(=O)C3CCCN3C(=O)OCc3ccccc3)cc12` (centres unmarked) [Example 321, Cc1c(sc2ccc(CNC(═O)[C]3CCCN3C(═O)OCc4ccccc4)cc12)-c5ccnc(N)n5]: under 5 µM and over 5 µM.
The matching figures for `Nc1nccc(-c2cc3ccccc3s2)n1` [Example 2, 4-(Benzo[b]thiophen-2-yl)pyrimidin-2-amine]: under 5 µM and under 5 µM.
In the case of `Cc1c(-c2ccnc(N)n2)sc2ccc(CNC(=O)C(F)(F)F)cc12` [Example 105, Cc1c(sc2ccc(CNC(═O)C(F)(F)F)cc12)-c3ccnc(N)n3], the IC50 in test [1] (setting [3]) was over 5 µM; in test [2] (setting [4]), under 5 µM.
For the molecule `Cc1c(-c2ccnc(N)n2)sc2ccc(CNC(=O)COc3ccccc3C=O)cc12` [Example 207, Cc1c(sc2ccc(CNC(═O)COc3ccccc3C═O)cc12)-c4ccnc(N)n4], the IC50 in test [1] (setting [3]) and in test [2] (setting [4]) was under 5 µM in each case.
With `Cc1c(-c2ccnc(N)n2)sc2ccc(CNC(=O)c3cccc([N+](=O)[O-])c3)cc12` [Example 180, Cc1c(sc2ccc(CNC(═O)c3cccc(c3)[N+]([O−])═O)cc12)-c4ccnc(N)n4], the IC50 in test [1] (setting [3]) and in test [2] (setting [4]) was under 5 µM throughout.
